Data reported in PubChem BioAssay AID1919009 (Molecular Pharmacology Branch, DTP, NCI, 2023).

Tested on: K24384-001-R-PDC complex spheroid growth
Test: Anticancer human tumor K24384-001-R-PDC patient-derived pancreatic adenocarcinoma cell line growth inhibition [AhR]
Settings: for IC50: curve of first compound; for viability, T/C: stronger effect = lower value
Procedure, shortened: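 Agents were dosed in half-log steps down from roughly clinical Cmax, or from 10 microM where Cmax was unknown, alone and with AhR antagonists. Read-out: percent test/control growth of tumor spheroids containing HUVEC and MSC stromal cells.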

[1] = second compound 0.1 µM, first compound 0.000949 µM
[2] = second compound 0.1 µM, first compound 0.003 µM
[3] = second compound 0.1 µM, first compound 0.00949 µM
[4] = second compound 0.1 µM, first compound 0.03 µM
[5] = second compound 0.1 µM, first compound 0.0949 µM
[6] = second compound 0.1 µM, first compound 0.3 µM
[7] = second compound 0.316 µM, first compound 0.000949 µM
[8] = second compound 0.316 µM, first compound 0.003 µM
[9] = second compound 0.316 µM, first compound 0.00949 µM
[10] = second compound 0.316 µM, first compound 0.03 µM
[11] = second compound 0.316 µM, first compound 0.0949 µM
[12] = second compound 0.316 µM, first compound 0.3 µM
[13] = second compound 1 µM, first compound 0.000949 µM
[14] = second compound 1 µM, first compound 0.003 µM
[15] = second compound 1 µM, first compound 0.00949 µM
[16] = second compound 1 µM, first compound 0.03 µM
[17] = second compound 1 µM, first compound 0.0949 µM
[18] = second compound 1 µM, first compound 0.3 µM
[19] = second compound 3.16 µM, first compound 0.000949 µM
[20] = second compound 3.16 µM, first compound 0.003 µM
[21] = second compound 3.16 µM, first compound 0.00949 µM
[22] = second compound 3.16 µM, first compound 0.03 µM
[23] = second compound 3.16 µM, first compound 0.0949 µM
[24] = second compound 3.16 µM, first compound 0.3 µM
[25] = second compound 10 µM, first compound 0.000949 µM
[26] = second compound 10 µM, first compound 0.003 µM
[27] = second compound 10 µM, first compound 0.00949 µM
[28] = second compound 10 µM, first compound 0.03 µM
[29] = second compound 10 µM, first compound 0.0949 µM
[30] = second compound 10 µM, first compound 0.3 µM
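Throughout, for viability, T/C: percent of DMSO vehicle-treated spheroid viability set as 100%.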

`CC(C)CC(NC(=O)C(Cc1ccccc1)NC(=O)c1cnccn1)B(O)O` (stereo not given) + Cc1cncc(-c2nc(NCCc3c[nH]c4ccccc34)c3ncn(C(C)C)c3n2)c1 showed an IC50 (second compound 0.1 µM) of 7.54 nM, an IC50 (second compound 0.316 µM) of 11.2 nM and an IC50 (second compound 1 µM) of 10.7 nM. For the same molecule, the IC50 (second compound 3.16 µM) was 7.07 nM, the IC50 (second compound 10 µM) was < 0.949 nM and the viability, T/C [1] was 112%. The viability, T/C [2] was 83.3%, the viability, T/C [3] was 46.1% and the viability, T/C [4] was 1.55%. The viability, T/C [5] was 0.43%, the viability, T/C [6] was 0.56% and the viability, T/C [7] was 107%. For the same molecule, the viability, T/C [8] was 95%, the viability, T/C [9] was 58.9% and the viability, T/C [10] was 1.17%. It also gave a viability, T/C [11] of 0.65%, a viability, T/C [12] of 0.45% and a viability, T/C [13] of 116%. The viability, T/C [14] was 106%, the viability, T/C [15] was 56.6% and the viability, T/C [16] was 0.7%. For the same molecule, the viability, T/C [17] was 0.26%, the viability, T/C [18] was 0.31% and the viability, T/C [19] was 83.9%. It also gave a viability, T/C [20] of 97%, a viability, T/C [21] of 36.1% and a viability, T/C [22] of 0.65%. For the same molecule, the viability, T/C [23] was 2.21%, the viability, T/C [24] was 0.22% and the viability, T/C [25] was 21.9%. It also gave a viability, T/C [26] of 24.2%, a viability, T/C [27] of 12.7% and a viability, T/C [28] of 0.35%. The viability, T/C [29] was 1.63% and the viability, T/C [30] was 1.52%.
`CCc1c2c(nc3ccc(O)cc13)-c1cc3c(c(=O)n1C2)COC(=O)[C@]3(O)CC` + Cc1cncc(-c2nc(NCCc3c[nH]c4ccccc34)c3ncn(C(C)C)c3n2)c1 showed an IC50 (second compound 0.1 µM) of 2.95 nM, an IC50 (second compound 0.316 µM) of 3.6 nM and an IC50 (second compound 1 µM) of 5.67 nM. For the same molecule, the IC50 (second compound 3.16 µM) was 6.01 nM, the IC50 (second compound 10 µM) was < 0.949 nM and the viability, T/C [1] was 67.3%. It also gave a viability, T/C [2] of 48.4%, a viability, T/C [3] of 33.4% and a viability, T/C [4] of 34.9%. The viability, T/C [5] was 28%, the viability, T/C [6] was 16.8% and the viability, T/C [7] was 68.9%. For the same molecule, the viability, T/C [8] was 47.1%, the viability, T/C [9] was 37.6% and the viability, T/C [10] was 35.9%. For the same molecule, the viability, T/C [11] was 23.9%, the viability, T/C [12] was 14% and the viability, T/C [13] was 76.9%. It also gave a viability, T/C [14] of 59.1%, a viability, T/C [15] of 41.5% and a viability, T/C [16] of 32%. The viability, T/C [17] was 26.4%, the viability, T/C [18] was 16.8% and the viability, T/C [19] was 60%. For the same molecule, the viability, T/C [20] was 52.6%, the viability, T/C [21] was 49.2% and the viability, T/C [22] was 29.8%. For the same molecule, the viability, T/C [23] was 21.7%, the viability, T/C [24] was 13.9% and the viability, T/C [25] was 5.03%. It also gave a viability, T/C [26] of 5.63%, a viability, T/C [27] of 6.51% and a viability, T/C [28] of 3.31%. It also gave a viability, T/C [29] of 4.86% and a viability, T/C [30] of 3.7%.
In the case of `COc1cc(Nc2ncc3c(n2)-c2ccc(Cl)cc2C(c2c(F)cccc2OC)=NC3)ccc1C(=O)O` + Cc1cncc(-c2nc(NCCc3c[nH]c4ccccc34)c3ncn(C(C)C)c3n2)c1, the IC50 (second compound 0.1 µM) is reported as 943 nM, the IC50 (second compound 0.316 µM) is reported as 2150 nM and the IC50 (second compound 1 µM) is reported as > 10000 nM. The IC50 (second compound 3.16 µM) was 10000 nM, the IC50 (second compound 10 µM) was < 31.6 nM and the viability, T/C (second compound 0.1 µM, first compound 0.0316 µM) was 81.9%. The viability, T/C (second compound 0.1 µM, first compound 0.1 µM) was 70.1%, the viability, T/C (second compound 0.1 µM, first compound 0.316 µM) was 69.6% and the viability, T/C (second compound 0.1 µM, first compound 1 µM) was 43.9%. For the same molecule, the viability, T/C (second compound 0.1 µM, first compound 3.16 µM) was 53.1%, the viability, T/C (second compound 0.1 µM, first compound 10 µM) was 49.9% and the viability, T/C (second compound 0.316 µM, first compound 0.0316 µM) was 95%. For the same molecule, the viability, T/C (second compound 0.316 µM, first compound 0.1 µM) was 66.4%, the viability, T/C (second compound 0.316 µM, first compound 0.316 µM) was 68% and the viability, T/C (second compound 0.316 µM, first compound 1 µM) was 41.1%. The viability, T/C (second compound 0.316 µM, first compound 3.16 µM) was 53.4%, the viability, T/C (second compound 0.316 µM, first compound 10 µM) was 47.7% and the viability, T/C (second compound 1 µM, first compound 0.0316 µM) was 85.3%. The viability, T/C (second compound 1 µM, first compound 0.1 µM) was 82.7%, the viability, T/C (second compound 1 µM, first compound 0.316 µM) was 75.2% and the viability, T/C (second compound 1 µM, first compound 1 µM) was 63%. For the same molecule, the viability, T/C (second compound 1 µM, first compound 3.16 µM) was 50.3%, the viability, T/C (second compound 1 µM, first compound 10 µM) was 51.5% and the viability, T/C (second compound 3.16 µM, first compound 0.0316 µM) was 80.5%. For the same molecule, the viability, T/C (second compound 3.16 µM, first compound 0.1 µM) was 77.2%, the viability, T/C (second compound 3.16 µM, first compound 0.316 µM) was 72.8% and the viability, T/C (second compound 3.16 µM, first compound 1 µM) was 44.8%. It also gave a viability, T/C (second compound 3.16 µM, first compound 3.16 µM) of 58.6%, a viability, T/C (second compound 3.16 µM, first compound 10 µM) of 62.1% and a viability, T/C (second compound 10 µM, first compound 0.0316 µM) of 11.1%. It also gave a viability, T/C (second compound 10 µM, first compound 0.1 µM) of 11.8%, a viability, T/C (second compound 10 µM, first compound 0.316 µM) of 10.3% and a viability, T/C (second compound 10 µM, first compound 1 µM) of 9.55%. It also gave a viability, T/C (second compound 10 µM, first compound 3.16 µM) of 9.44% and a viability, T/C (second compound 10 µM, first compound 10 µM) of 17%.
